Assay results as given in ChEMBL document CHEMBL3297711, “Application of encoded library technology (ELT) to a protein-protein interaction target: discovery of a potent class of integrin lymphocyte function-associated antigen 1 (LFA-1) antagonists” (Bioorg Med Chem, 2014).
pIC50: −log10 of the molar value. Calls of active or inactive are those of the source. No cut-off for these calls is given here.

Experiments:
[1] = target: T1, Integrin alpha-L (Homo sapiens) (UniProt P20701); experiment: Allosteric antagonist activity at wild type LFA-1 (unknown origin) transfected in human K562 cells assessed as inhibition of cell adhesion to ICAM-1 at 50 uM incubated for 30 mins under dark condition by microplate fluorimetric analysis; format: cell-based
T1 sequence (whole entry): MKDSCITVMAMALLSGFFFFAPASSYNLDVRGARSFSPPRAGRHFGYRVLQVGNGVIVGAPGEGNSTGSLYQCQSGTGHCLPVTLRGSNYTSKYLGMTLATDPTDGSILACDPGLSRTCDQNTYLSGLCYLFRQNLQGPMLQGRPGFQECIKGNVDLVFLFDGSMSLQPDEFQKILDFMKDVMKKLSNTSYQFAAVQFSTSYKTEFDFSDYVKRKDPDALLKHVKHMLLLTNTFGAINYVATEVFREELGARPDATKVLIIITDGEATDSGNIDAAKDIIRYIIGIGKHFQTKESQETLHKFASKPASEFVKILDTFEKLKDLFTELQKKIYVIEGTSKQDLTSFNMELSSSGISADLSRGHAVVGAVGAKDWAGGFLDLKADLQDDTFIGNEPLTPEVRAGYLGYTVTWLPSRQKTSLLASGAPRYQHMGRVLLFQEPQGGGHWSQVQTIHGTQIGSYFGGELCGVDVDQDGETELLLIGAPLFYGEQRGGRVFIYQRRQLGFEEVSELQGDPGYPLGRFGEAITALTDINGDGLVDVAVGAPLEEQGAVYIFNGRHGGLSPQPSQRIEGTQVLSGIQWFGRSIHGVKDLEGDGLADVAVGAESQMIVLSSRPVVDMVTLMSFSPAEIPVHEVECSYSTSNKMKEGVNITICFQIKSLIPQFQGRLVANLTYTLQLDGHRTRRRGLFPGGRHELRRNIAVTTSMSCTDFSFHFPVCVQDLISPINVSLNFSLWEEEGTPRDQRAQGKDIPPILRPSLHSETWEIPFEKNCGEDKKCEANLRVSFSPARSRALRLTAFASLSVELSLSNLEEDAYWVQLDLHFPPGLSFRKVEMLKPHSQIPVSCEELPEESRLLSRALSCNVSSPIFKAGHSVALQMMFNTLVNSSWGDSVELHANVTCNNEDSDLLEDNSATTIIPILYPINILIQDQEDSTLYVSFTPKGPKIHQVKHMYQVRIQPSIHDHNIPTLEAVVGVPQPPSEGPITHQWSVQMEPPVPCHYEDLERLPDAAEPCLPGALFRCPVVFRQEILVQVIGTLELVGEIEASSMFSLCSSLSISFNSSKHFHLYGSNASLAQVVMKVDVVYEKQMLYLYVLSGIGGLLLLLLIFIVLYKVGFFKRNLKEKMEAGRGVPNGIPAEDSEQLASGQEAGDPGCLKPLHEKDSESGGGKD

[2] = target: T1, Integrin alpha-L (Homo sapiens); experiment: (§1) Antagonist activity at C-terminal 6xHis-tagged LFA-1 LBD (unknown origin) expressed in Escherichia coli assessed as inhibition of interaction with ICAM-1 preincubated for 30 mins followed by ICAM-1 addition measured after 60 mins by ELISA
Integrin alpha-L = target: T2, Integrin alpha-L (Homo sapiens, UniProt P20701); experiment: as §1
T2 sequence (P20701 whole entry): T1 sequence (whole entry)

[3] = target: T1, Integrin alpha-L (Homo sapiens); experiment: Antagonist activity at wild type LFA-1 in human Jurkat cells assessed as inhibition of PMA-stimulated cell adhesion to ICAM-1 at 50 uM incubated for 45 mins under dark condition by microplate fluorimetric analysis; format: cell-based
K562 [4] = experiment: Allosteric antagonist activity at LFA-1 K287C/K294C double mutant (unknown origin) transfected in human K562 cells assessed as inhibition of cell adhesion to ICAM-1 at 50 uM incubated for 30 mins under dark condition by microplate fluorimetric analysis in absence of DTT; format: cell-based
K562 [5] = experiment: Allosteric antagonist activity at LFA-1 K287C/K294C double mutant (unknown origin) transfected in human K562 cells assessed as inhibition of cell adhesion to ICAM-1 at 50 uM incubated for 30 mins under dark condition by microplate fluorimetric analysis in presence of DTT; format: cell-based
[6] = target: T1, Integrin alpha-L (Homo sapiens); experiment: Binding affinity to LFA-1 (unknown origin) transfected in human K562 cells by FACS analysis relative to control; format: cell-based

CCNC(=O)C1(Nc2nc(NCCc3ccc(Cl)c(Cl)c3)nc(N3CC4CC3CN4S(=O)(=O)c3ccccc3OC(F)(F)F)n2)Cc2ccccc2C1 (stereo not drawn)
inhibition [1]: Active
inhibition [2]: Dose-dependent effect
pIC50 (Integrin alpha-L): 7.66
inhibition [3]: Active
inhibition (K562 [4]): inactive
inhibition (K562 [5]): Active

CCN1/C(=C/C=C/C2=[N+](CCCCCC(=O)NCCCCNC(=O)C3(Nc4nc(NCCc5ccc(Cl)c(Cl)c5)nc(N5CC6CC5CN6C(=O)c5cccc(C(F)(F)F)c5)n4)Cc4ccccc4C3)c3ccc(S(=O)(=O)O)cc3C2(C)C)C(C)(C)c2cc(S(=O)(=O)O)ccc21 (stereo not drawn)
pIC50 (Integrin alpha-L): 7.00
fold change (FC) [6]: 3

CCNC(=O)C1(Nc2nc(NCCc3ccccc3)nc(N3CC4CC3CN4C(=O)c3cccc(C(F)(F)F)c3)n2)Cc2ccccc2C1 (stereo not drawn)
pIC50 (Integrin alpha-L): 6.31

CCNC(=O)C1(Nc2nc(N[C@H](C)c3ccccc3)nc(N3CC4CC3CN4C(=O)c3cccc(C(F)(F)F)c3)n2)Cc2ccccc2C1 (stereo partly drawn)
pIC50 (Integrin alpha-L): < 5.00

O=C(c1cccc(C(F)(F)F)c1)N1CC2CC1CN2c1nc(NCCc2ccc(Cl)c(Cl)c2)nc(NC2CCCC2)n1 (stereo not drawn)
pIC50 (Integrin alpha-L): < 5.00

CCN1/C(=C/C=C/C2=[N+](CCCCCC(=O)NCCCCNC(=O)C3(Nc4nc(NCCc5ccc(Cl)c(Cl)c5)nc(N5CC6CC5CN6S(=O)(=O)c5cccc(C(F)(F)F)c5)n4)Cc4ccccc4C3)c3ccc(S(=O)(=O)O)cc3C2(C)C)C(C)(C)c2cc(S(=O)(=O)O)ccc21 (stereo not drawn)
pIC50 (Integrin alpha-L): 7.55
fold change (FC) [6]: 2

CCNC(=O)C1(Nc2nc(N[C@@H](C)c3ccc(Br)cc3)nc(N3CC4CC3CN4C(=O)c3cccc(C(F)(F)F)c3)n2)Cc2ccccc2C1 (stereo partly drawn)
inhibition [1]: Active
inhibition [2]: Dose-dependent effect
pIC50 (Integrin alpha-L): 7.80
inhibition [3]: Active
inhibition (K562 [4]): inactive
inhibition (K562 [5]): Active

CCNC(=O)C1(Nc2nc(NCCc3ccc(Cl)c(Cl)c3)nc(N3CC4CC3CN4C(=O)c3cccc(C(F)(F)F)c3)n2)Cc2ccccc2C1 (stereo not drawn)
inhibition [1]: Active
inhibition [2]: Dose-dependent effect
pIC50 (Integrin alpha-L): 7.64
inhibition [3]: Active
inhibition (K562 [4]): inactive
inhibition (K562 [5]): Active

CCNC(=O)C1(Nc2nc(N[C@@H](C)c3ccccc3)nc(N3CC4CC3CN4C(=O)c3cccc(C(F)(F)F)c3)n2)Cc2ccccc2C1 (stereo partly drawn)
pIC50 (Integrin alpha-L): 6.74

O=C(c1cccc(C(F)(F)F)c1)N1CC2CC1CN2c1nc(NCCc2ccc(Cl)c(Cl)c2)nc(NC2(C(=O)O)Cc3ccccc3C2)n1 (stereo not drawn)
pIC50 (Integrin alpha-L): 7.43

CCNC(=O)C1(Nc2nc(NCCc3ccc(Cl)c(Cl)c3)nc(N3CCCC3)n2)Cc2ccccc2C1
pIC50 (Integrin alpha-L): 4.89

O=C(c1cccc(C(F)(F)F)c1)N1CC2CC1CN2c1nc(NCCc2ccc(Cl)c(Cl)c2)nc(NC2Cc3ccccc3C2)n1 (stereo not drawn)
pIC50 (Integrin alpha-L): 6.45

CCNC(=O)C1(Nc2nc(NCC)nc(N3CC4CC3CN4C(=O)c3cccc(C(F)(F)F)c3)n2)Cc2ccccc2C1 (stereo not drawn)
pIC50 (Integrin alpha-L): < 5.00

CCNC(=O)C1(Nc2nc(NCc3ccccc3)nc(N3CC4CC3CN4C(=O)c3cccc(C(F)(F)F)c3)n2)Cc2ccccc2C1 (stereo not drawn)
pIC50 (Integrin alpha-L): 5.10

O=C(O)C1(Nc2nc(NCCc3ccc(Cl)c(Cl)c3)nc(N3CC4CC3CN4S(=O)(=O)c3cccc(C(F)(F)F)c3)n2)Cc2ccccc2C1 (stereo not drawn)
pIC50 (Integrin alpha-L): 7.19

CCNC(=O)C1(Nc2nc(N[C@@H](C)c3ccc(Br)cc3)nc(N3CC4CC3CN4S(=O)(=O)c3ccccc3OC(F)(F)F)n2)Cc2ccccc2C1 (stereo partly drawn)
inhibition [1]: Active
inhibition [2]: Dose-dependent effect
pIC50 (Integrin alpha-L): 6.93
inhibition [3]: Active
inhibition (K562 [4]): inactive
inhibition (K562 [5]): Active
